SMILES strings stand for the structures. Numbers after ± are expanded uncertainties.

A short description of this series: activity coefficient (dimensionless); of the first substance listed, at infinite dilution; xn = mol fraction of the nth substance listed. The conditions noted are these: Liquid, Chromatography, x1 = 0.

For the compound `C=CCCCC` [hex-1-ene] + CCCCn1cc[n+](C)c1.N#CN=C=[N-], the activity coefficient is 26.4 ± 1.8 (318.15 K); 25.9 ± 1.8 (328.15 K); 25.5 ± 1.7 (338.15 K); 25.1 ± 1.7 (348.15 K); 24.7 ± 1.7 (358.15 K); 24.4 ± 1.7 (368.15 K).

Consider `CC(C)c1ccccc1` [isopropylbenzene] + CCCCn1cc[n+](C)c1.N#CN=C=[N-], for which the activity coefficient (318.15 K) was 7.3 ± 0.5; the activity coefficient (328.15 K) is 7.52 ± 0.51; the activity coefficient (338.15 K) is 7.72 ± 0.53; the activity coefficient (348.15 K) was determined as 7.93 ± 0.54; the activity coefficient (358.15 K) is 8.11 ± 0.55; the activity coefficient (368.15 K) was 8.3 ± 0.6.

On to `CC(C)CC(C)(C)C` [2,2,4-trimethylpentane] + CCCCn1cc[n+](C)c1.N#CN=C=[N-], for which the activity coefficient came to 111 ± 8 (318.15 K); 105 ± 7 (328.15 K); 101 ± 7 (338.15 K); 96.5 ± 6.6 (348.15 K); 92.8 ± 6.4 (358.15 K); 89.2 ± 6.1 (368.15 K).

`C1CCCCCC1` [cycloheptane] + CCCCn1cc[n+](C)c1.N#CN=C=[N-]: the activity coefficient runs as follows: (318.15 K) 32.6 ± 2.2; (328.15 K) 31.2 ± 2.1; (338.15 K) 30.1 ± 2.1; (348.15 K) 29.1 ± 2; (358.15 K) 28.1 ± 1.9; (368.15 K) 27.3 ± 1.9.

For `CCCCCCC` [heptane] + CCCCn1cc[n+](C)c1.N#CN=C=[N-], the activity coefficient (318.15 K) was 91 ± 6.2; the activity coefficient (328.15 K) was determined as 87.2 ± 6; the activity coefficient (338.15 K) is 83.9 ± 5.8; the activity coefficient (348.15 K) was found to be 80.6 ± 5.5; the activity coefficient (358.15 K) was 77.8 ± 5.3; the activity coefficient (368.15 K) was determined as 75.3 ± 5.2.

In the case of `CO` [methanol] + CCCCn1cc[n+](C)c1.N#CN=C=[N-], the activity coefficient (318.15 K) was determined as 0.399 ± 0.034; the activity coefficient (328.15 K) came to 0.408 ± 0.034; the activity coefficient (338.15 K) turned out to be 0.42 ± 0.035; the activity coefficient (348.15 K) was determined as 0.431 ± 0.035; the activity coefficient (358.15 K) was determined as 0.442 ± 0.036; the activity coefficient (368.15 K) came out at 0.46 ± 0.036.

In the case of `C1=CCCCC1` [cyclohexene] + CCCCn1cc[n+](C)c1.N#CN=C=[N-], the activity coefficient runs as follows: (318.15 K) 11.4 ± 0.8; (328.15 K) 11.4 ± 0.8; (338.15 K) 11.3 ± 0.8; (348.15 K) 11.3 ± 0.8; (358.15 K) 11.3 ± 0.8; (368.15 K) 11.3 ± 0.8.

Regarding `C#CCCCCCC` [1-octyne] + CCCCn1cc[n+](C)c1.N#CN=C=[N-], the activity coefficient is, setting by setting: (318.15 K) 12.5 ± 0.9; (328.15 K) 13 ± 0.9; (338.15 K) 13.4 ± 0.9; (348.15 K) 13.9 ± 1; (358.15 K) 14.4 ± 1; (368.15 K) 14.8 ± 1.

Turning to `C1CCOC1` [tetrahydrofuran] + CCCCn1cc[n+](C)c1.N#CN=C=[N-], the activity coefficient came to 1.55 ± 0.1 (318.15 K); 1.63 ± 0.11 (328.15 K); 1.71 ± 0.11 (338.15 K); 1.78 ± 0.12 (348.15 K); 1.85 ± 0.12 (358.15 K); 1.93 ± 0.13 (368.15 K).

Regarding `C#CCCC` [1-pentyne] + CCCCn1cc[n+](C)c1.N#CN=C=[N-], the activity coefficient stood at 3.7 ± 0.3 (318.15 K); 3.94 ± 0.27 (328.15 K); 4.16 ± 0.28 (338.15 K); 4.38 ± 0.3 (348.15 K); 4.6 ± 0.3 (358.15 K); 4.84 ± 0.33 (368.15 K).

On to `CC1CCCCC1` [methylcyclohexane] + CCCCn1cc[n+](C)c1.N#CN=C=[N-], for which the activity coefficient (318.15 K) came out at 40.2 ± 2.8; the activity coefficient (328.15 K) was 38.3 ± 2.6; the activity coefficient (338.15 K) amounted to 36.5 ± 2.5; the activity coefficient (348.15 K) stood at 35 ± 2.4; the activity coefficient (358.15 K) came out at 33.6 ± 2.3; the activity coefficient (368.15 K) came out at 32.4 ± 2.2.

As for `C1CCCCC1` [cyclohexane] + CCCCn1cc[n+](C)c1.N#CN=C=[N-], the activity coefficient runs as follows: (318.15 K) 25.8 ± 1.8; (328.15 K) 25 ± 1.7; (338.15 K) 24.3 ± 1.7; (348.15 K) 23.7 ± 1.6; (358.15 K) 23.1 ± 1.6; (368.15 K) 22.6 ± 1.5.

Consider `C1CCCC1` [cyclopentane] + CCCCn1cc[n+](C)c1.N#CN=C=[N-], for which the activity coefficient turned out to be 17.4 ± 1.2 (318.15 K); 16.9 ± 1.2 (328.15 K); 16.3 ± 1.1 (338.15 K); 15.9 ± 1.1 (348.15 K); 15.5 ± 1.1 (358.15 K); 15.1 ± 1 (368.15 K).

With `CCCOCCC` [dipropyl ether] + CCCCn1cc[n+](C)c1.N#CN=C=[N-], the activity coefficient came to 20.4 ± 1.4 (318.15 K); 20.5 ± 1.4 (328.15 K); 20.5 ± 1.4 (338.15 K); 20.5 ± 1.4 (348.15 K); 20.5 ± 1.4 (358.15 K); 20.6 ± 1.4 (368.15 K).

Consider `CC(C)CO` [2-methyl-1-propanol] + CCCCn1cc[n+](C)c1.N#CN=C=[N-], for which the activity coefficient by setting is: (318.15 K) 1.08 ± 0.07; (328.15 K) 1.08 ± 0.07; (338.15 K) 1.09 ± 0.07; (348.15 K) 1.09 ± 0.07; (358.15 K) 1.09 ± 0.07; (368.15 K) 1.09 ± 0.07.

For the compound `c1ccsc1` [thiophene] + CCCCn1cc[n+](C)c1.N#CN=C=[N-], the activity coefficient was determined as 1.14 ± 0.07 (318.15 K); 1.22 ± 0.08 (328.15 K); 1.29 ± 0.08 (338.15 K); 1.36 ± 0.09 (348.15 K); 1.43 ± 0.09 (358.15 K); 1.5 ± 0.1 (368.15 K).

With `CCO` [ethanol] + CCCCn1cc[n+](C)c1.N#CN=C=[N-], the activity coefficient (318.15 K) came out at 0.65 ± 0.044; the activity coefficient (328.15 K) was determined as 0.658 ± 0.045; the activity coefficient (338.15 K) amounted to 0.669 ± 0.045; the activity coefficient (348.15 K) was 0.677 ± 0.046; the activity coefficient (358.15 K) was 0.686 ± 0.046; the activity coefficient (368.15 K) is 0.694 ± 0.047.

Turning to `O` [water] + CCCCn1cc[n+](C)c1.N#CN=C=[N-], the activity coefficient is 0.31 ± 0.03 (318.15 K); 0.323 ± 0.032 (328.15 K); 0.336 ± 0.032 (338.15 K); 0.349 ± 0.032 (348.15 K); 0.363 ± 0.033 (358.15 K); 0.376 ± 0.033 (368.15 K).

Take `CC(C)OC(C)C` [diisopropyl ether] + CCCCn1cc[n+](C)c1.N#CN=C=[N-]: the activity coefficient is, setting by setting: (318.15 K) 20.6 ± 1.4; (328.15 K) 20.9 ± 1.4; (338.15 K) 21.2 ± 1.4; (348.15 K) 21.5 ± 1.5; (358.15 K) 21.8 ± 1.5; (368.15 K) 22 ± 1.5.

As for `CC(C)(C)O` [2-methylpropan-2-ol] + CCCCn1cc[n+](C)c1.N#CN=C=[N-], the activity coefficient stood at 1.11 ± 0.07 (318.15 K); 1.14 ± 0.07 (328.15 K); 1.16 ± 0.07 (338.15 K); 1.19 ± 0.08 (348.15 K); 1.21 ± 0.08 (358.15 K); 1.24 ± 0.08 (368.15 K).

On to `CCC[N+](=O)[O-]` [1-nitropropane] + CCCCn1cc[n+](C)c1.N#CN=C=[N-], for which the activity coefficient was 1.26 ± 0.08 (318.15 K); 1.31 ± 0.09 (328.15 K); 1.36 ± 0.09 (338.15 K); 1.41 ± 0.09 (348.15 K); 1.45 ± 0.1 (358.15 K); 1.5 ± 0.1 (368.15 K).
